Data taken from US20060269480A1, “Multi-triggered self-immolative dendritic compounds” (Ramot At Tel Aviv University Ltd., priority 2005, published 2006).

Legend:
[1] = system: MOLT-3 cells; test: Apoptosis by annexin V/7-AAD flow cytometry; format: cell-based, human; settings: 25 nM drug or prodrug, 1 μM 38C2 or PGA where stated
Description: (§1) Cell lines: Human T-lineage acute lymphoblastic leukemia (ALL) cell line MOLT-3, and human erythroleukemia cell line HEL were purchased from American Type Culture Collection (ATCC, Rockville, Md.) and maintained in RPMI 1640 medium (Hyclone, Logan, Utah) supplemented with 10% FCS, 1.5 gram/liter sodium bicarbonate, 10 mM HEPES, 1 mM sodium pyruvate, and antibiotics (Gibco, Grand Island, N.Y.).
Assessment of apoptosis: Cells were stained with Phycoerythrin (PE)-conjugated annexin V and 7-AAD using the annexin V kit (BD PharMingen, San Diego, Calif.) according to the manufacture's protocol. In brief, cells were collected at different time points, washed once with EDTA-free PBS, and then incubated for 15 minutes with a mixture containing annexin V-PE and 7-AAD in binding buffer (10 mM HEPES (pH 7.4), 140 mM NaCl, and 2.5 mM CaCl2). Thereafter, the supernatants were removed, and 400 μl of binding buffer was added to each sample. The fluorescence was analyzed by flow cytometry (FACScan, Becton Dickinson, San Jose, Calif.) for the presence of viable (AV^− and 7-AAD^−), early apoptotic (AV^+, 7-AAD^−), and late apoptotic/secondary necrotic (AV^+ and 7-AAD^+) cells.
MOLT-3cells were incubated in the presence of Compound 16 and PGA or Ab38C2, as described in the Methods section hereinabove, for various time periods. […]

[2] = system: HEL cells; test: Cell growth inhibition, [3H]thymidine proliferation assay; format: cell-based; settings: Homo sapiens, read-out: IC50, HEL cells, 72 hours incubation, 38C2 or PGA at 1 μM where stated, read-out: IC50, Hell cells
Description: as §1
(§2) Cytotoxicity assays: Stock solutions of 2 mM doxorubicin (Dox) and dual-triggered prodrug (pro-Dox, Compound 16) in dimethylformamide were stored at 4° C. For cell-growth inhibition assays, 100 μM solutions of the drug or prodrug in PBS were freshly prepared from the 2 mM stock solutions.
(§3) Cells were harvested from culture dishes, washed once with HBSS, re-suspended in cell culture medium, and plated in 96-well tissue culture plate at a density of 5×10^3/well in 100 μl media. Drugs were further diluted in cell culture medium to yield final concentration of 50 pM-1 μM and added to the cells. […] The cells were frozen at −80° C. overnight and subsequently processed on a multichannel automated cell harvester (Cambridge Technology, Cambridge, Mass.) and counted in a liquid scintillation beta counter (Beckman Coulter). […] The inhibition in experiment E was calculated according to the following formula: (background−E)/background×100%. […]

[3] = system: MOLT-3 cells; test: as above; format: cell-based; settings: Homo sapiens, 72 hours incubation, 38C2 or PGA at 1 μM where stated
Description: as §1, §2, §3

SMILES: COc1cccc2c1C(=O)c1c(O)c3c(c(O)c1C2=O)C[C@@](O)(C(=O)CO)C[C@@H]3O[C@H]1C[C@H](N)[C@H](O)[C@H](C)O1 [Dox, doxorubicin]
- incubation time after which the majority of cells were in early or late apoptotic state [1]: 24 h
- induction of apoptosis ([1]; up to 72 hours): undergo apoptosis
- IC50 [2]: 20 nM
- IC50 [3]: 3 nM
